Reference: patent US8962846B2, “Melanocortin receptor antagonist compounds, process for preparing them and use thereof in human medicine and cosmetics” (Galderma Research & Development, priority 2008, dated 2015)

Columns and labels:
hMC4-R = target: T1, hMC4-R (Homo sapiens, UniProt P32245); experiment: Transactivation test: melanocortin receptors (CRE-Luc luciferase), hMC4-R; type: cell-based; conditions: HEK293 transfected with pCRE-Luc and receptor; 10-point dose response from 10 μM; antagonist behaviour tested in presence of 1 nM NDP-MSH; 6 hours incubation
T1 construct: expressed in transfected cells; host or cells: HEK293
T1 sequence (P32245 whole entry): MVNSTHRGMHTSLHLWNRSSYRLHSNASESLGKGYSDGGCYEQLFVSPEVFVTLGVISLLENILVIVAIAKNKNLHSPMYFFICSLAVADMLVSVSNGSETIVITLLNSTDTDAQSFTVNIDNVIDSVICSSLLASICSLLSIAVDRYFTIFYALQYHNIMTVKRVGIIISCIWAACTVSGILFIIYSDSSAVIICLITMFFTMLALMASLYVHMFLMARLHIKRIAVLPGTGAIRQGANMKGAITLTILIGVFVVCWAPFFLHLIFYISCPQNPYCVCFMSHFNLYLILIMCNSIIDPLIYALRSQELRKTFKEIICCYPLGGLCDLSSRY
Description: (§1) The lines HEK293 are transfected with vectors pCRE-Luc and hMCl1R or hMCl4R. The cells are cultured at 37° C. and 5% CO2, in DMEM medium supplemented with 10% foetal calf serum.
(§2) In the presence of an activator (agonist), the melanocortin receptor will activate the cAMP pathway, which, via the vector CRE-Luc, will lead to the synthesis of luciferase. After addition of a lysis buffer containing a luminescent luciferase substrate, the luminescence proportional to the degree of activation or inhibition of receptor may be measured.
(§3) The products are dissolved at 10 mM in DMSO. They are tested as a response dose at 0.1% of DMSO final. The range comprising 10 points and a zero starts at 10 μM with four-fold dilutions. To test agonists, the products are tested alone. To determine the antagonist behaviour, the products of interest are tested in the presence of 1 nM NDP-MSH (reference agonist). The cells are inoculated at a rate of 5000 cells per well (384-well plate) in serum-free DMEM medium and incubated overnight at 37° C. and 5% CO2.
(§4) The products and the reference ligand (NDP-MSH) are added the following day and the plates are reincubated for 6 hours at 37° C. and 5% CO2. After adding the lysis buffer containing luciferin, the plates are read in a Top-Count machine. The results are normalized as percentage of activity using the 100% (cells+NDP-MSH at 10 nM) and 0% (cells alone) controls. An EC50 is calculated for each product using the XLFit software.

hMC1-R = target: T2, hMC1-R (Homo sapiens, UniProt Q01726); experiment: Transactivation test: melanocortin receptors (CRE-Luc luciferase), hMC1-R; type: cell-based; conditions: HEK293 transfected with pCRE-Luc and receptor; 10-point dose response from 10 μM; antagonist behaviour tested in presence of 1 nM NDP-MSH; 6 hours incubation
T2 construct: expressed in transfected cells; host or cells: HEK293
T2 sequence (Q01726 whole entry): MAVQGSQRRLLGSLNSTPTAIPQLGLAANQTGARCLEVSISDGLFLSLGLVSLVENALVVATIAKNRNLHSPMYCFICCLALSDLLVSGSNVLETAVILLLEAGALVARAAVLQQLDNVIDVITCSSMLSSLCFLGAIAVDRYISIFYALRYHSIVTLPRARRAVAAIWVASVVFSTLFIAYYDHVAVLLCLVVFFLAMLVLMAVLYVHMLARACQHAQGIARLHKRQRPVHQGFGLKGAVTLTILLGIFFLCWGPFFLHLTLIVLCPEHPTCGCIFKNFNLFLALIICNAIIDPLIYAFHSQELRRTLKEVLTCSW
Description: as §1, §2, §3, §4

Row | SMILES | EC50 (hMC4-R) | EC50 (hMC1-R)
1 | CCCC(=O)C1(C2CCCCC2)CCN(C(=O)[C@@H](Cc2ccc(OC)cc2)NC(=O)NCCc2c[nH]nn2)CC1 [Example 3, 1-[(R)-2-(4-Butyryl-4-cyclohexylpiperidin-1-yl)-1-(4-methoxybenzyl)-2-oxoethyl]-3-[2-(1H-[1,2,3]triazol-4-yl)ethyl]urea] | 50 nM | 
2 | CCOC(=O)C1(C2CCCCC2)CCN(C(=O)[C@@H](Cc2ccc(OC)cc2)NC(=S)NCCCc2c[nH]cn2)CC1 [Example 7, Ethyl 4-cyclohexyl-1-[(R)-2-{3-[3-(1H-imidazol-4-yl)propyl]-thioureido}-3-(4-methoxyphenyl)propionyl]piperidine-4-carboxylate] | 50 nM | 1000 nM
3 | CCOC(=O)C1(C2CCCCC2)CCN(C(=O)[C@@H](Cc2ccc(OC)cc2)NC(=S)NCCc2cn(C)cn2)CC1 [Example 8, Ethyl 4-cyclohexyl-1-((R)-3-(4-methoxyphenyl)-2-{3-[2-(1-methyl-1H-imidazol-4-yl)ethyl]thioureido}propionyl)piperidine-4-carboxylate] | 50 nM | 1000 nM
4 | CCOC(=O)C1(C2CCCCC2)CCN(C(=O)[C@@H](Cc2ccc(Cl)cc2Cl)NC(=O)NCCc2c[nH]cn2)CC1 [Example 9, Ethyl 4-cyclohexyl-1-((R)-3-(2,4-dichlorophenyl)-2-{3-[2-(1H-imidazol-4-yl)ethy]ureido}propionyl)piperidine-4-carboxylate] | 2 nM | 1000 nM
5 | CCCC(=O)C1(C2CCCCC2)CCN(C(=O)[C@@H](Cc2ccc(OC)cc2)NC(=O)NCCc2cn(C)cn2)CC1 [Example 2, 1-[(R)-2-(4-Butyryl-4-cyclohexylpiperidin-1-yl)-1-(4-methoxybenzyl)-2-oxoethyl]-3-[2-(1-methyl-1H-imidazol-4-yl)ethyl]urea] | 50 nM | 1000 nM
6 | CCOC(=O)C1(C2CCCCC2)CCN(C(=O)[C@@H](Cc2ccc(OC)cc2)NC(=O)NCCCc2cnc[nH]2)CC1 [Example 4, Ethyl 4-cyclohexyl-1-[(R)-2-{3-[3-(3H-imidazol-4-yl)propyl]-ureido}-3-(4-methoxyphenyl)propionyl]piperidine-4-carboxylate] | 20 nM | 500 nM
7 | CCOC(=O)C1(C2CCCCC2)CCN(C(=O)[C@@H](Cc2ccc(Cl)c(Cl)c2)NC(=O)NCCc2cncn2C)CC1 [Example 6, Ethyl 4-cyclohexyl-1-((R)-3-(3,4-dichlorophenyl)-2-{3-[2-(3-methyl-3H-imidazol-4-yl)ethyl]ureido}propionyl)piperidine-4-carboxylate] | 10 nM | 
8 | COc1ccc(CC(NC(=O)NCCc2c[nH]cn2)C(=O)N2CCC(C(=O)NC(C)(C)C)(C3CCCCC3)CC2)cc1 (centres unmarked) [Example 1, 4-Cyclohexyl-1-[2-{3-[2-(1H-imidazol-4-yl)ethyl]ureido}-3-(4-methoxyphenyl)propionyl]piperidine-4-tert-butylcarbamoyl] | 60 nM | 
9 | CCOC(=O)C1(C2CCCCC2)CCN(C(=O)[C@@H](Cc2ccc(Cl)c(Cl)c2)NC(=O)NCCc2c[nH]cn2)CC1 [Example 5, Ethyl 4-cyclohexyl-1-((R)-3-(3,4-dichlorophenyl)-2-{3-[2-(1H-imidazol-4-yl)ethyl]ureido}propionyl)piperidine-4-carboxylate] | 15 nM | 
